# In patent US4410525A, “Alkoxy pyrazole derivatives and compositions” (Establissements Nativelle S.A., priority 1981, dated 1983):
# Where two headings read alike, the source gives them in different places.
# Legend:
# [1] = tested on: ventricular extrasystoles in the dog; assay: Harris test on the dog; type: in vivo; conditions: during the 2 hours following the injection
# Procedure: By way of example, the number of ventricular extrasystoles per minute decreases by approximately 50% during the 2 hours following the injection of the product, in the case of the derivative described in Example 10. Moreover, the antiarrhythmic effect (myocardiac protection) increases with the size of the dose injected.
# [2] = Acute toxicity (lethal dose 50) in the mouse; conditions: in vivo, oral (P.O.), 5 males and 5 females per dose, read-out: LD 50 P.O.
# Source text: The acute toxicity of the deriatives of the invention were studied by oral administration (P.O) to the mouse (10 animals, 5 males and 5 females per dose) and calculation of the lethal dose 50 (LD 50) in accordance with the method of Litchfield and Wilcoxon (J. Pharmacol., 96, 99-113 (1949)). Table 1 gives the LD 50 values of the derivatives of the invention.
# In certain cases, the LD 50 was also studied after intraperitoneal injection (I.P.) of the derivatives.
# [3] = tested on: isolated guinea pig auricle; assay: Maximum stimulation frequency test on isolated guinea pig auricle; conditions: Cavia porcellus; 10 mg/l; read-out: Δ% MFS (decrease of the maximum frequency followed)
# Procedure: The maximum frequency test carried out studied the maximum stimulation frequency which can cause contraction of an isolated guinea pig auricle placed in a solution containing a derivative of the invention. The measurement was carried out before (control period) and then after introduction of the derivative into the solution.
# rabbit cornea = assay: Local contact anesthesia on the rabbit cornea; type: in vivo; conditions: solution at 0.25% or 1% by weight, eyewash instillation
# Source text: For example, the derivatives described in Examples 2, 3, 4, 6, 7 and 9 are local anesthetics (100% anesthesia) in a solution at 0.25% or 1% by weight.
# [4] = tested on: anoxic ventricular fibrillation in mice; assay: Cardiac antifibrillatory activity on the mouse (Lawson test); type: in vivo; conditions: ip, intraperitoneal, 10 minutes before chloroform, read-out: ED 50 (protects half the mice against anoxic ventricular fibrillation)
# Procedure: Cardiac antifibrillatory activity of the derivatives of the invention has been verified on the mouse using the Lawson test, in accordance with the method described by J. W. Lawson, J. Pharmacol. Exp. Therp. 160, 22-31 (1968), and C. Narcisse et al., Ann. Pharm. Fr. 37, 325-330 (1979).
# The mice (20 per dose) received an intraperitoneal injection of the derivative 10 minutes before being placed in a chloroform saturated atmosphere. As soon as respiratory arrest occurred, the thorax was opened (5 to 10 seconds) and the state of the heart was checked: presence or absence of ventricular fibrillation. The efficacy dose 50 (ED 50) of the derivative being studied is the dose which protects half the mice against anoxic ventricular fibrillation.
# anesthetized dog = assay: Hemodynamic effects on the anesthetized dog; type: in vivo; conditions: i.v.; for (dp/dt)l/p, percentage of variation / Cardiac flow, percentage of variation / Cardiac frequency, percentage of variation / Contraction force of the myocardium, percentage of variation / Systolic arterial pressure, percentage of variation / Systolic volume, percentage of variation: Example 4 series, vs pretreatment; for Cardiac frequency (result in words) / Systolic arterial pressure (result in words) / force of ventricular myocardiac contractions (result in words) / cumulative dose at which a 20% drop of cardiac flow is reached: anesthetized dog
# Procedure: Cardiovascular tolerance was studied on the isolated guinea pig auricle, on the anesthetized rat and on the anesthetized dog.
# On the anesthetized dog, the results obtained with respect to hemodynamic tolerance are summarized in Table 2 below which indicates the percentages of variation of the hemodynamic parameters in relation to the pre-treatment control period for the derivatives of Examples 2 and 4.
# The parameters were recorded by means of:
# Catheters connected to pressure sensors (arterial pressure, left ventricular pressure and its first derivative dp/dt);
# Electromagnetic flowmeter on the aorta (aortic flow);
# Strain gauge placed on the left ventricular myocardium (force of myocardiac contraction).
# The derivatives were injected intraveneously, one dose approximately every 30 minutes and their effects were measured 20 minutes after the completion of the injection (length of the injection 2 minutes).
# [5] = tested on: ventricular arrhythmias induced by aconitine in the anesthetized rat; assay: Antiarrhythmic test with aconitine on the rat; type: in vivo
# Procedure: The derivatives of the invention were used in the test with aconitine on the rat. For this test, the anesthetized rat was intoxicated by an intravenous perfusion of aconitine (solution of aconitine nitrate: 15 mg/l; speed of perfusion: 0.4 ml/min) while its electrocardiogram was recorded permanently. During perfusion at constant speed, the time necessary for the appearance of ventricular arrhythmias, successively ventricular extrasystoles (ESV), ventricular tachycardium (TV) and ventricular fibrillation (FV) was measured.
# The animals were divided into a control group (untreated) and treated group (different doses). The results are expressed as a percentage of prolonging the time of the appearance of the arrhythmias in the treated groups in relation to the control group. This prolongation of arrhythmia appearance time therefore corresponds to myocardiac protection against the arrhythmic effects of aconitine.
# [6] = read-out: Prolongation of time of appearance of ventricular extrasystoles (ESV)
# [7] = read-out: Prolongation of time of appearance of ventricular fibrillation (FV)
# [8] = read-out: Prolongation of time of appearance of ventricular tachycardium (TV)
structure (smiles),measurement,setting,value
Clc1ccc(-c2cc(OCCN3CCOCC3)[nH]n2)cc1 [Example 10],decrease of the number of ventricular extrasystoles per minute,[1],approximately 50%
same,LD50,[2],1000 mg/kg
same,inhibition at 10 µg/mL,[3],15%
"Cc1c(-c2ccccc2)n[nH]c1OCCN1CCOCC1 [Example 4, 3-Phenyl-4-methyl-5-morpholinoethoxy-pyrazole]",local anesthesia,rabbit cornea,100%
same,LD50,[2],750 mg/kg
same,inhibition at 10 µg/mL,[3],27%
same,ED50,[4],46 mg/kg
same,"(dp/dt)l/p, percentage of variation",anesthetized dog; dose 1 mg/kg,+10%
same,"Cardiac flow, percentage of variation",anesthetized dog; dose 1 mg/kg,0%
same,"Cardiac frequency, percentage of variation",anesthetized dog; dose 1 mg/kg,0%
same,"Contraction force of the myocardium, percentage of variation",anesthetized dog; dose 1 mg/kg,+5%
same,"Systolic arterial pressure, percentage of variation",anesthetized dog; dose 1 mg/kg,0%
same,"Systolic volume, percentage of variation",anesthetized dog; dose 1 mg/kg,0%
same,"(dp/dt)l/p, percentage of variation",anesthetized dog; dose +3 mg/kg,+2%
same,"Cardiac flow, percentage of variation",anesthetized dog; dose +3 mg/kg,0%
same,"Cardiac frequency, percentage of variation",anesthetized dog; dose +3 mg/kg,0%
same,"Contraction force of the myocardium, percentage of variation",anesthetized dog; dose +3 mg/kg,+10%
same,"Systolic arterial pressure, percentage of variation",anesthetized dog; dose +3 mg/kg,0%
same,"Systolic volume, percentage of variation",anesthetized dog; dose +3 mg/kg,0%
same,"(dp/dt)l/p, percentage of variation",anesthetized dog; dose +10 mg/kg,-10%
same,"Cardiac flow, percentage of variation",anesthetized dog; dose +10 mg/kg,-23%
same,"Cardiac frequency, percentage of variation",anesthetized dog; dose +10 mg/kg,0%
same,"Contraction force of the myocardium, percentage of variation",anesthetized dog; dose +10 mg/kg,+26%
same,"Systolic arterial pressure, percentage of variation",anesthetized dog; dose +10 mg/kg,0%
same,"Systolic volume, percentage of variation",anesthetized dog; dose +10 mg/kg,-23%
same,"(dp/dt)l/p, percentage of variation",anesthetized dog; dose +20 mg/kg,-21%
same,"Cardiac flow, percentage of variation",anesthetized dog; dose +20 mg/kg,-34%
same,"Cardiac frequency, percentage of variation",anesthetized dog; dose +20 mg/kg,0%
same,"Contraction force of the myocardium, percentage of variation",anesthetized dog; dose +20 mg/kg,+42%
same,"Systolic arterial pressure, percentage of variation",anesthetized dog; dose +20 mg/kg,0%
same,"Systolic volume, percentage of variation",anesthetized dog; dose +20 mg/kg,-34%
same,"(dp/dt)l/p, percentage of variation",anesthetized dog; dose +40 mg/kg,-10%
same,"Cardiac flow, percentage of variation",anesthetized dog; dose +40 mg/kg,-11%
same,"Cardiac frequency, percentage of variation",anesthetized dog; dose +40 mg/kg,-18%
same,"Contraction force of the myocardium, percentage of variation",anesthetized dog; dose +40 mg/kg,+52%
same,"Systolic arterial pressure, percentage of variation",anesthetized dog; dose +40 mg/kg,0%
same,"Systolic volume, percentage of variation",anesthetized dog; dose +40 mg/kg,-8%
same,Cardiac frequency (result in words),anesthetized dog,does not change
same,Systolic arterial pressure (result in words),anesthetized dog,does not change
same,force of ventricular myocardiac contractions (result in words),anesthetized dog,increases
same,cumulative dose at which a 20% drop of cardiac flow is reached,anesthetized dog,greater than 4 mg/kg
same,change in vivo at 10 mg/kg,[5]; [6],7%
same,change in vivo at 10 mg/kg,[5]; [7],18%
same,change in vivo at 10 mg/kg,[5]; [8],22%
c1ccc(-c2cc(OCCN3CCCCC3)[nH]n2)cc1 [Example 9],local anesthesia,rabbit cornea,100%
same,LD50,[2],400 to 800 mg/kg
same,inhibition at 10 µg/mL,[3],48%
same,ED50,[4],44 mg/kg
same,Cardiac frequency (result in words),anesthetized dog,drops moderately
same,Systolic arterial pressure (result in words),anesthetized dog,does not change
same,force of ventricular myocardiac contractions (result in words),anesthetized dog,does not vary significantly
same,cumulative dose at which a 20% drop of cardiac flow is reached,anesthetized dog,greater than 4 mg/kg
same,change in vivo at 10 mg/kg,[5]; [6],0%
same,change in vivo at 10 mg/kg,[5]; [7],38%
same,change in vivo at 10 mg/kg,[5]; [8],28%
